# According to patent US20180362993A1, “ELICITOR-DERIVED PEPTIDES AND USE THEREOF” (Plant Health Care, Inc., priority 2017, published 2018):
# Marks after values point to notes of the source that are not given here.
# Tests used:
# Format in all cases: in vivo
# corn [1] = test: Drought resistance in corn (foliar spray); conditions: corn, foliar spray 2 μg/ml, vs untreated control
# Method: The effectiveness of peptide treatment in reducing drought stress was assessed in corn. 3.5 inch pots were filled with Sunshine #1 soil (SunGro Horticulture), fertilized with a 20-10-20 mixture. The soil was soaked and drained overnight. Seeds (either corn or soy, manually inspected to ensure uniform seed size) were planted at a depth of 1 inch for germination. Plants were grown in a greenhouse under 16 hour light days at >70° F. and 8 hour dark nights at >65° F. Prior to drought conditions, the plants were well-watered.
# When the plants reached the V1 stage, plants were culled to achieve a uniform height (abnormally large and small plants were removed). Plants were then randomly assigned to control (spray without peptide) or treatment (spray with peptide) groups and heights were measured. Peptide was made up in a solution of 0.2 μg/ml or 2μg/ml in distilled water+0.01% Tween-20, and applied as a fine mist from a spray bottle until the solution drips from the leaves. After the peptide solutions were dried, the plants were again randomized in a randomized complete block design. Drought stress was initiated after the peptide treatment. This was caused by maintaining the water level at 25-50% of the maximum capacity for water (capacity was decided as the weight of the pot filled with saturated soil minus the weight of the filled pot prior to adding water).
# (§1) The drought test phase ended after 2-3 weeks. At that time, the plant height was again measured and the growth rate was calculated as the difference between this and the previously-recorded height. The above-ground part portions of the plants were harvested and weighed to obtain fresh weight. The above-ground portion was also dried in an oven at 70° C. for 72 hours to obtain dry weight. All calculations were compared with matched untreated control plants.
# The drought testing procedure was carried out in corn using a treatment of P12, P13-10, P13-11, P13-12, P13-14, P13-4, and P13-15 (SEQ ID NOs: 5, 16, 17, 18, 20, 10, and 21). Asterisks indicate statistical significance by P-value (*: P<0.1 and **: P<0.05)
# soy [2] = test: Drought resistance in soy (foliar spray); conditions: vs untreated control
# Method: The effectiveness of peptide treatment in reducing drought stress was assessed in […]. 3.5 inch pots were filled with Sunshine #1 soil (SunGro Horticulture), fertilized with a 20-10-20 mixture. The soil was soaked and drained overnight. Seeds (soy, manually inspected to ensure uniform seed size) were planted at a depth of half inch for germination. Plants were grown in a greenhouse under 16 hour light days at >70° F. and 8 hour dark nights at >65° F. Prior to drought conditions, the plants were well-watered.
# When the plants reached the growth stage when first trifoliate expanded, plants were culled to achieve a uniform height (abnormally large and small plants were removed). Plants were then randomly assigned to control (spray without peptide) or treatment (spray with peptide) groups and heights were measured. Peptide was made up in a solution of 0.2 μg/ml or 2μg/ml in distilled water+0.04% Tween-20, and applied as a fine mist from a spray bottle until the solution drips from the leaves. After the peptide solutions were dried, the plants were again randomized in a randomized complete block design. Cyclic drought stress was initiated after the peptide treatment. Plants were subjected to at least three drought cycles of drought stress (3-5 days of withholding water and 1 day irrigated with saturating amount of water) before harvesting.
# as §1
# The drought testing procedure was carried out in soy using a treatment of P12-2, P13-4, P13-5, P13-7, P13-3, P13-14, P13-2, and P13-15 (SEQ ID NOs: 6, 10, 11, 13, 9, 20, 8, and 21). Asterisks indicate statistical significance by P-value (*: P<0.1 and **: P<0.05)
# corn [3] = test: Drought resistance in seed-coated corn; conditions: for % Change Dry Weight / % Change Fresh Weight: vs mock
# Method: The effectiveness of peptide treatment in reducing the effects of drought stress was assessed in corn using a seed treatment strategy. This strategy largely mirrors example 2, except that the seeds were coated with a peptide formulation rather than a foliar spray application.
# Seeds were first sieved using mesh screens to a uniform size (21-23/64 inches). The seeds were then coated with a mixture of peptide, Unicoat™ seed coat polymer, and a minimal volume of water in a Hege 11 Liquid Seed Treater (Wintersteiger) according to manufacturer recommendations. Seeds were coated with one of the following: (i) 0.12 μg peptide/seed, (ii) […], or (iii) a ‘mock’ treatment that included no peptide. The amount of peptide per seed assumes complete transfer of the peptide to seed surfaces in the seed coating chamber. Losses during coating were not considered.
# (§2) 3.5 inch pots were filled (approximately 0.2 L per pot) with Sunshine #1 mix (SunGro Horticulture), fertilized with 14-14-14 N,P,K Osmocote (Everris), and mixed for 20 minutes using a soil mixer M-5. Seeds were planted at a depth of 0.5 inch for germination. The pots were immediately irrigated by submergence then drained after about an hour. For each treatment group, 24 replicate seeds were planted. Plants were grown in a greenhouse under 16 hour light days at ˜75° F. and 8 hour dark nights at ˜65° F. Prior to drought conditions, the plants were well-watered.
# Three days after planting, the plants were randomized using a complete block design and subjected to a cyclic drought stress. Drought stress was imposed by withholding water for 2-3 days until the majority of plants were under medium to severe water stress. The severity of the stress was determined by the weight of the pot and visual determination of leaf curling. Once drought stress was attained, the pots were watered to full saturation. Full Saturation (100% pot capacity) is defined as the weight of the pot filled with water-saturated soil minus the weight of the filled pot prior to adding water. Drought stress was imposed for a total of 18 days.
# At the end of the experiment (18 days after initiation of drought stress), the plant was then harvested for fresh and dry weights. Individual plants were cut near the soil surface and weighed immediately (fresh weight). The plants were then placed into labeled brown paper bags and dried in a 70° C. oven for 72 hours. A dry weight was then obtained.
# The following calculation was performed on the collected data: Fresh weight at harvest and dry weight at harvest for the plants grown from peptide-treated seeds were expressed as a % change relative to the ‘mock’ treated plants.
# soy [4] = test: Drought resistance in seed-treated soy; conditions: for Result in the seed treated drought study for soy, in words: soy seed treatment; for % Change Dry Weight / % Change Fresh Weight: vs mock
# Method: The effectiveness of peptide treatment in reducing drought stress was assessed in soy using a seed treatment strategy. This strategy largely mirrors examples 3 and 4.
# Seeds were first sieved using mesh screens to a uniform size (14-17 mesh). The seeds were then coated with a mixture of peptide and Unicoat™ seed coat polymer in a Hege 11 Liquid Seed Treater (Wintersteiger) according to manufacturer recommendations. […]
# as §2
# Seven days after germination the heights of the plants were measured. This was determined as the distance between the soil surface and the shoot apical meristems (buds). The plants were randomized using a complete block design and subjected to a cyclic drought stress. Drought stress was imposed by withholding water for 3-4 days until the majority of plants were under medium to severe water stress. The severity of the stress was determined by the weight of the pot and visual determination of loss of turgor in the leaves (drooping). Once drought stress was attained, the pots were watered to full saturation. Full Saturation (100% pot capacity) is defined as the weight of the pot filled with water-saturated soil minus the weight of the filled pot prior to adding water. Drought stress was imposed for a total of 18 days.
# At the end of the experiment (18 days after initiation of drought stress), the plant above the soil surface was then harvested for fresh and dry weights. Individual plants were cut near the soil surface and weighed immediately (fresh weight). The plants were then placed into labeled brown paper bags and dried in a 70° C. oven for 72 hours. A dry weight was then obtained. The following calculation was performed on the collected data: Fresh weight at harvest, and dry weight at harvest for the peptide-treated plants were expressed as a % change relative to the ‘mock’ treated plants.
# [5] = corn seed treatment 1.05 μg/seed
# [6] = corn seed treatment 0.12 μg/seed
Sequence,Dry Weight Increase (soy [2]; foliar spray 0.2 μg/ml),Fresh Weight Increase (soy [2]; foliar spray 0.2 μg/ml),% Change Dry Weight (corn [3]; [5]) [%],% Change Fresh Weight (corn [3]; [5]),Dry Weight Increase (soy [2]; foliar spray 2 μg/ml),Fresh Weight Increase (soy [2]; foliar spray 2 μg/ml),"Result in the seed treated drought study for soy, in words (soy [4])",% Change Dry Weight (soy [4]; soy seed treatment 0.1 μg/seed),% Change Fresh Weight (soy [4]; soy seed treatment 0.1 μg/seed),% Change Dry Weight (corn [3]; [6]) [%],% Change Fresh Weight (corn [3]; [6]),other results
MSPMEQLMKIFADITQSLFEEEE (P13-4 peptide) [Peptide P13-4],4.45* %,7.75** %,,,,,,,,,,Dry Weight Increase (corn [1]): 0.06%; Fresh Weight Increase (corn [1]): −2.77%
TSGLSPLEQLLKIFADITQSLFG (P13-2 peptide) [Peptide P13-2],8.70** %,7.84** %,0.38,3.67%,14.54** %,15.56** %,,,,,,
AGQTSGMSPMEQLMKIFADITQSLFGDEDG (P13-44 peptide) [Peptide P13-44],,,3.44,9.15** %,,,significant results,10.93** %,10.54** %,2.73,7.76** %,
AGQTSGMSPMEQLMKLFADLTQSLFGDQDG (P13-30 peptide) [Peptide P13-30],,,2.73,8.68** %,,,significant results,,,3.01,6.19* %,"% Change Dry Weight (soy [4]; soy seed treatment 0.9 μg/seed): 6.17%; % Change Fresh Weight (soy [4]; soy seed treatment 0.9 μg/seed): 9.41* %; Drought tolerance activity in corn, result in words (corn [3]; corn seed treatment): positive"
AGQTSGMSPMEQLLKIFADITQSLFGDQDG (P13-39 peptide) [Peptide P13-39],,,3.10,5.09** %,,,,3.26%,3.22%,,,
GDLQGSGASTQDTSGMSPMEQLMKIFADITQSLFGDQDG (P12-2 peptide) [Peptide P12-2],,,,,3.55%,7.83** %,,,,,,
